In patent publication US5053070A, “Pyrimidine derivatives, preparation processes thereof, herbicide containing the same, and herbicidal compositions containing the same along with other active ingredient” (Mitsui Toatsu Chemicals, Incorporated, priority 1988, dated 1991):

Experiments:
[1] = tested on: ALS (acetolactate syntase); assay: ALS enzyme assay (Test 1); type: biochemical, barnyardgrass; conditions: 1,000 ppm (0.5 mg/0.5 ml)
Description: To determine the selectivity in enzyme level between crops and weeds, and ALS enzyme assay was conducted using pea as a representative of broadleaf crops and barnyardgrass as a representative of narrowleaf weeds.
After seeds of pea and barnyardgrass were allowed to germinate at 25° C. for 8-14 days in a dark place, partially-purified suspensions (Suspensions A) of acetolactate syntase were separately obtained from seedlings in accordance with the method described in the literature, Plant Physiology, 75, 827-831.
In a test tube, 0.5 mg of one of test compounds was weighed, followed by the addition of 0.15 ml of a 20 mM K2 HPO4 solution and 0.25 ml of a reaction substrate medium which consisted of 40 mM of K2 HPO4, 40 mM of sodium pyruvate, 1 mM of TPP, 1 mM of MgCl2 and 20 μM of FAD so that 0.4 ml of a reaction solution (Solution B) was prepared. Added to 0.4 ml of Solution B was 0.1 ml of suspension A. After the resultant mixture was shaken for 1 hour in a thermostat water bath controlled at 30° C., 50 μl of 6N sulfuric acid were added to terminate the reaction.
Next, the reaction-terminated liquid mixture was transferred into a thermostat water bath controlled at 60° C. and was heated for 15 minutes. Thereafter, 0.5 ml of a 0.5% creatine solution and 0.5 ml of a 5% alkaline α-naphthol solution were added, and the resultant mixture was maintained at 60° C. for 15 minutes. As a result, the test solution developed a pink-red color. After the above operation, the absorbance of the test solution at 525 nm was measured by a spectrophotometer (Absorbance 1 of Test Compound).
On the other hand, the absorbance (Absorbance 2 of Blank) of a solution obtained by subjecting a portion of Solution B, said portion being free of the test compound, to the above operation and the absorbance (Absorbance 3 of sulfuric acid terminated) of another solution obtained by subjecting another portion of Solution B, said portion containing 50 μl of 6N sulfuric acid as a test compound, were measured at the same time. Based on the values of the respective measurements, the enzyme assay at 1,000 ppm (0.5 mg/0.5 ml) of each compound was determined. [formula]

barnyardgrass [2] = assay: Upland soil application test (Test 2); type: in vivo; conditions: 30 g ai/a, soil spray before emergence, 30 days later
Description: (§1) Resin-made 1/2500-are pots were filled with the soil of an upland field. After they were fertilized, soybean, peanut and cotton were seeded and 2-3 cm soil covering was applied. Seeds of redroot pigweed, common lambsquarters, barnyardgrass, green foxtail, large crabgrass, foxtail meadow and johnsongrass had been uniformly mixed with the soil. They were allowed to germinate in a green house. One day later (before emergence of weeds), a wettable powder prepared from a predetermined amount of each test compound in a similar manner to the method described in Formulation Example 1 was diluted with water and then sprayed evenly at an application rate equal to 10 l per are onto the surface of the soil by means of a pressure-operated ULV (ultra low volume) sprayer. Influence to the crops and weeds were observed 30 days later. The results are shown in Table 3, in which the degree of damages of each test plant and the degree of injury to each crop were determined by comparing the air-dried weights of the test plant and crop with those of the corresponding plant and crop in untreated pots and are shown in accordance with the following standard: […]

common lambsquarters = assay: Upland soil application test (Test 2); type: in vivo; conditions: 30 g ai/a, soil spray before emergence, 30 days later
Description: as §1

foxtail meadow = assay: Upland soil application test (Test 2); type: in vivo; conditions: 30 g ai/a, soil spray before emergence, 30 days later
Description: as §1

green foxtail = assay: Upland soil application test (Test 2); type: in vivo; conditions: 30 g ai/a, soil spray before emergence, 30 days later
Description: as §1

johnsongrass = assay: Upland soil application test (Test 2); type: in vivo; conditions: 30 g ai/a, soil spray before emergence, 30 days later
Description: as §1

large crabgrass = assay: Upland soil application test (Test 2); type: in vivo; conditions: 30 g ai/a, soil spray before emergence, 30 days later
Description: as §1

redroot pigweed = assay: Upland soil application test (Test 2); type: in vivo; conditions: 30 g ai/a, soil spray before emergence, 30 days later
Description: as §1

cotton = assay: Upland soil application test (Test 2), crop injury; type: in vivo; conditions: 30 g ai/a, soil spray before emergence, 30 days later
Description: as §1

peanut = assay: Upland soil application test (Test 2), crop injury; type: in vivo; conditions: 30 g ai/a, soil spray before emergence, 30 days later
Description: as §1

soybean = assay: Upland soil application test (Test 2), crop injury; type: in vivo; conditions: 30 g ai/a, soil spray before emergence, 30 days later
Description: as §1

Sagittaria pygmaea [3] = assay: Treatment of soil under submerged condition, pre-emergence (Test 4); type: in vivo; conditions: 30 g ai/a granule, 30 days later
Description: (§2) 1/5000-are Wagner pots were filled with soil. Seeds or tubers of barnyardgrass, Monochoria vaginalis, bulrush, Sagittaria pygmaea, Cyperus seroylnus and Eleocharis kuroguwai were seeded or planted under submerged condition. Two pairs of rice seedlings (2-3 leaf stage), which had been reared in advance, were transplanted to each pot and were allowed to germinate in a green house. Each pair consisted of two rice seedlings. One day later (before emergence of weeds), each pot was treated with a granule which had been prepared by processing a predetermined amount of the test composition in accordance with a similar method to the method described in Formulation Example 9. The state of emergence of weeds and the state of injury of rice were observed 30 days later.
(§3) In the table, the degrees of damages of the test plants and the degrees of injury of rice are shown in a similar manner to Example 2.

barnyardgrass [4] = assay: as above; type: in vivo; conditions: 30 g ai/a granule, 30 days later
Description: as §2, §3

bulrush [5] = assay: as above; type: in vivo; conditions: 30 g ai/a granule, 30 days later
Description: as §2, §3

Sagittaria pygmaea [6] = assay: Treatment of soil under submerged condition, post-emergence (Test 5); type: in vivo; conditions: 30 g ai/a granule, 30 days later
Description: as §2, with “serroylnus” for “seroylnus”, “grow” for “germinate”, “When the barnyardgrass grew to two-leaf stage,” for “One day later (before emergence of weeds),”
(§4) In the table, the degrees of damages of the test plants and the degrees of injury of the rice are shown in a similar manner to Example 2.

barnyardgrass [7] = assay: as above; type: in vivo; conditions: 30 g ai/a granule, post-emergence (barnyardgrass two-leaf stage), 30 days later
Description: as §2, with “serroylnus” for “seroylnus”, “grow” for “germinate”, “When the barnyardgrass grew to two-leaf stage,” for “One day later (before emergence of weeds),”
as §4

bulrush [8] = assay: as above; type: in vivo; conditions: 30 g ai/a granule, 30 days later
Description: as §2, with “serroylnus” for “seroylnus”, “grow” for “germinate”, “When the barnyardgrass grew to two-leaf stage,” for “One day later (before emergence of weeds),”
as §4

| SMILES | Inhibitory activity (%) Barnyardgrass [1] [%] | Herbicidal effects Barnyardgrass (barnyardgrass [2]) | Herbicidal effects Common lambsquarters (common lambsquarters) | Herbicidal effects Foxtail meadow (foxtail meadow) | Herbicidal effects Green foxtail (green foxtail) | Herbicidal effects Johnsongrass (johnsongrass) | Herbicidal effects Large crabgrass (large crabgrass) | Herbicidal effects Redroot pigweed (redroot pigweed) | Injury Cotton (cotton) | Injury Peanut (peanut) | Injury Soybean (soybean) | Herbicidal effects Sagittaria Pygmaea (Sagittaria pygmaea [3]) | Herbicidal effects Barnyardgrass (barnyardgrass [4]) | Herbicidal effects Bulrush (bulrush [5]) | Herbicidal effects Sagittaria Pygmaea (Sagittaria pygmaea [6]) | Herbicidal effects Barnyardgrass (barnyardgrass [7]) | Herbicidal effects Bulrush (bulrush [8]) |
| --- | --- | --- | --- | --- | --- | --- | --- | --- | --- | --- | --- | --- | --- | --- | --- | --- | --- |
| COc1cc(OC)nc(Oc2ccccc2C=NOCc2cccc(C)c2)n1 [compound 20] | 58 | 3 (11-40 (Medium damages)) | 4 (6-10 (Severe damages)) | 5 (0-5 (Death)) | 5 (0-5 (Death)) | 5 (0-5 (Death)) | 5 (0-5 (Death)) | 5 (0-5 (Death)) | 0 (91-100 (No damages)) | 0 (91-100 (No damages)) | 0 (91-100 (No damages)) | 4 (6-10 (Severe damages)) | 5 (0-5 (Death)) | 4 (6-10 (Severe damages)) | 4 (6-10 (Severe damages)) | 5 (0-5 (Death)) | 4 (6-10 (Severe damages)) |
| C#CCON=Cc1ccccc1Oc1nc(OC)cc(OC)n1 [Compound No. 13, 0-(2-propynyl)-2-(4,6-dimethoxy-2-pyrimidinyloxy)benzaldoxime] | 85 | 5 (0-5 (Death)) | 4 (6-10 (Severe damages)) | 5 (0-5 (Death)) | 5 (0-5 (Death)) | 5 (0-5 (Death)) | 5 (0-5 (Death)) | 5 (0-5 (Death)) | 0 (91-100 (No damages)) | 0 (91-100 (No damages)) | 0 (91-100 (No damages)) | 4 (6-10 (Severe damages)) | 4 (6-10 (Severe damages)) | 5 (0-5 (Death)) | 3 (11-40 (Medium damages)) | 5 (0-5 (Death)) | 4 (6-10 (Severe damages)) |
| COc1cc(OC)nc(Oc2ccccc2C=NOCC=Cc2ccccc2C)n1 [Compound No. 39] | 92 | 4 (6-10 (Severe damages)) | 4 (6-10 (Severe damages)) | 5 (0-5 (Death)) | 5 (0-5 (Death)) | 5 (0-5 (Death)) | 5 (0-5 (Death)) | 5 (0-5 (Death)) | 0 (91-100 (No damages)) | 0 (91-100 (No damages)) | 0 (91-100 (No damages)) | 4 (6-10 (Severe damages)) | 5 (0-5 (Death)) | 4 (6-10 (Severe damages)) | 4 (6-10 (Severe damages)) | 5 (0-5 (Death)) | 4 (6-10 (Severe damages)) |

The next lines start with results.

| Inhibitory activity (%) Barnyardgrass [1] [%] | SMILES | Herbicidal effects Barnyardgrass (barnyardgrass [2]) | Herbicidal effects Common lambsquarters (common lambsquarters) | Herbicidal effects Foxtail meadow (foxtail meadow) | Herbicidal effects Green foxtail (green foxtail) | Herbicidal effects Johnsongrass (johnsongrass) | Herbicidal effects Large crabgrass (large crabgrass) | Herbicidal effects Redroot pigweed (redroot pigweed) | Injury Cotton (cotton) | Injury Peanut (peanut) | Injury Soybean (soybean) | Herbicidal effects Sagittaria Pygmaea (Sagittaria pygmaea [3]) | Herbicidal effects Barnyardgrass (barnyardgrass [4]) | Herbicidal effects Bulrush (bulrush [5]) | Herbicidal effects Sagittaria Pygmaea (Sagittaria pygmaea [6]) | Herbicidal effects Barnyardgrass (barnyardgrass [7]) | Herbicidal effects Bulrush (bulrush [8]) |
| --- | --- | --- | --- | --- | --- | --- | --- | --- | --- | --- | --- | --- | --- | --- | --- | --- | --- |
| 56 | C=C(Cl)CON=Cc1ccccc1Oc1nc(OC)cc(OC)n1 [Compound No. 14] | 5 (0-5 (Death)) | 4 (6-10 (Severe damages)) | 5 (0-5 (Death)) | 5 (0-5 (Death)) | 5 (0-5 (Death)) | 5 (0-5 (Death)) | 4 (6-10 (Severe damages)) | 0 (91-100 (No damages)) | 0 (91-100 (No damages)) | 0 (91-100 (No damages)) | 5 (0-5 (Death)) | 5 (0-5 (Death)) | 3 (11-40 (Medium damages)) | 4 (6-10 (Severe damages)) | 5 (0-5 (Death)) | 5 (0-5 (Death)) |
| 100 | COc1cc(OC)nc(Oc2ccccc2C=NOCC=Cc2ccccc2Cl)n1 [Compound No. 27] | 4 (6-10 (Severe damages)) | 4 (6-10 (Severe damages)) | 5 (0-5 (Death)) | 5 (0-5 (Death)) | 5 (0-5 (Death)) | 5 (0-5 (Death)) | 5 (0-5 (Death)) | 0 (91-100 (No damages)) | 0 (91-100 (No damages)) | 0 (91-100 (No damages)) | 4 (6-10 (Severe damages)) | 5 (0-5 (Death)) | 4 (6-10 (Severe damages)) | 4 (6-10 (Severe damages)) | 5 (0-5 (Death)) | 4 (6-10 (Severe damages)) |
| 15 | COc1cc(OC)nc(Oc2ccccc2C=NOCc2ccc(Cl)cc2Cl)n1 [Compound No. 17] | 3 (11-40 (Medium damages)) | 4 (6-10 (Severe damages)) | 3 (11-40 (Medium damages)) | 3 (11-40 (Medium damages)) | 3 (11-40 (Medium damages)) | 3 (11-40 (Medium damages)) | 3 (11-40 (Medium damages)) | 0 (91-100 (No damages)) | 0 (91-100 (No damages)) | 0 (91-100 (No damages)) | 3 (11-40 (Medium damages)) | 4 (6-10 (Severe damages)) | 4 (6-10 (Severe damages)) | 3 (11-40 (Medium damages)) | 3 (11-40 (Medium damages)) | 4 (6-10 (Severe damages)) |
